The values that follow come from US20240077500A1, “METHOD FOR THE DETECTION AND TREATMENT OF PROTEINOPATHIES” (Women & Infants Hospital of Rhode Island, priority 2021, published 2024).

Series [1] deals with hTAU transgenic mouse model. Nature of the series: Preeclampsia serum-induced onset of AD features in the hTAU transgenic mouse model (Example 7). Format: in vivo. Conditions: weekly trehalose (2 mg/kg) from 2 months (60 day old mice) for one month; preeclampsia serum injected at 1 month. Here is the method:
The efficacy with which trehalose inhibits the onset of Alzheimer's disease (AD) features was assessed using the hTAU transgenic mouse model at ages of 3, 6, 9, and 12 months. The onset of AD features were preempted by the administration of serum obtained from pregnant women with normal pregnancy or preeclampsia.

Series [2] relates to hTAU mice. Description: Nesting activity assay in e-PES injected hTAU mice. Format: in vivo, mouse. Here is the method:
FIG. 21A: provides photographs of representative nests constructed by the mice; FIG. 21B and FIG. 21D provide bar graphs showing nestlet score for 4-month old (FIG. 21B) and 6-month old (FIG. 21D) mice; FIG. 21C and FIG. 21E provide bar graphs showing untorn nestlet weight for 4-month old (FIG. 21C) and 6-month old (FIG. 21E) mice.
Nesting activity was assessed using a modified scoring criteria to rate the quality of nest construction and the amount of torn nestlet material. Following the nocturnal period, untorn nesting material was weighed, and nests were photographed for scoring on a 0-7 ordinal scale modified from published criteria. Nestlet scores and weights are shown as mean+SEM; *p<0.05 versus controls. Preeclampsia serum was used to observe significant effects in hTAU mice without waiting for 9-12 months of age.
(§1) 100 μL e-PES (early-onset preeclampsia serum) was injected in 10-12 weeks old non-pregnant female hTAU mice. The i.p. injection was performed once a week for 4 weeks. Trehalose treatment (2 g/kg/week) or saline (100 μL/week) was initiated after completion of 4 weeks of e-PES injection cycle. At the end of the trehalose treatment, a group of mice (n=5 for each group) was sacrificed after 2 weeks of resting biological activity (FIG. 18).
(§2) Another two groups were kept to assess their behavioral and brain pathological outcomes (i.e., nesting behavior and/or sensory motor coordination).

Series [3] has as its system hTAU mice. Nature of the series: Ledge assay (sensorimotor coordination) in e-PES injected hTAU mice. It is filed as in vivo, mouse. Conditions: for falling off of the ledge / mobility: e-PES+trehalose mice.
Source text: FIGS. 22A-22C provide the results of sensory-motor coordination studies utilizing a ledge assay. hTAU mice were compared to hTAU mice injected with e-PES at 10-12 weeks age (n=5) with or without trehalose administration. […] FIG. 22C provides a bar graph comparing time spent on the ledge (seconds) for each subset of mice (i.e., hTAU control, PES 49, and PES 49+trehalose).
Sensorimotor coordination deficits were detected by the ledge assay. In the ledge assay, mice were placed on the elevated cage's ledge at a height of 35 cm and width of 0.8 cm and their movement was monitored. Each mouse was tested three times (approximately 20 seconds) and scored from 0 to 3 depending on the severity of deficits.
as §1, §2

The conditions of series [4]: for humans, by the FDA, based on safety studies in mice, rats and rabbits, including during pregnancy; cited from earlier work.
A further series deals with SHSY neuronal cells. Description: AD serum-induced protein aggregation in SHSY neuronal cells, ProteoStat staining. It is filed as cell-based. The following applies: 50 mM trehalose, 10% AD patient serum, 24 hours. The procedure: (§3) Primary human trophoblasts and SHSY cells were cultured and washed with serum-free media at 70% confluency. The cells were then cultured with 10% serum samples from AD patients for 72 hours (trophoblasts) and 24 hours (neuronal cells), respectively, in the absence or presence of 50 mM trehalose. Cells were stained with ProteoStat dye and evaluated for accumulation of protein aggregates.

A further series relates to human trophoblasts. Description: AD serum-induced protein aggregation in primary human trophoblasts, ProteoStat staining. Format: cell-based. Conditions: 50 mM trehalose, 10% AD patient serum, 72 hours. Here is the method: as §3
Series [5] relates to hTAU mice. Description: Brain pathology (AT180 hyperphosphorylated Tau staining of mPFC) in e-PES injected hTAU mice (Example 8). Conditions: trehalose 2 g/kg/week i.p. for 4 weeks after 4 weeks of e-PES injection. It is filed as in vivo, mouse. The procedure:
10-12 week old non-pregnant female hTAU mice were injected with e-PE serum (100 μL/week for 4 weeks) followed by treatment (i.p injection) with either saline (100 μL /week) or Trehalose (2 g/kg/week) for 4 weeks, followed by 2 weeks of resting period prior to biological assessments. Medial prefrontal cortex (mPFC) was stained for hyperphosphorylated Tau (using antibody AT180 which detects Tau hyperphosphorylation at T231 & S235). FIG: 19A: Confocal images stained with AT180 are shown that correspond to the mPFC of control (upper), e-PES (middle), and e-PES+Trehalose (bottom), with quantification data in mPFC being present at right panels; inset images are the high magnification image of the selected area; FIG. 19B: provides a bar graph showing the number of AT180 positive cells/0.1 mm^2 in hTAU control, PES 49, and PES 49+trehalose treated mice.
10-12 weeks old non-pregnant female hTAU mice were injected with e-PE serum (100 μL/week for 4 weeks) followed by treatment (i.p injection) with either saline (100 μL/week) or Trehalose (2 g/kg/week) for 4 weeks, followed by 8-10 weeks of resting period prior to biological assessment. Medial prefrontal cortex (mPFC) was stained for hyperphosphorylated Tau (using antibody AT180 which detects Tau hyperphosphorylation at T231 & S235). […]
Brain pathologies were evaluated in a group of mice at 4 and 6 months of age.

The mark [6] stands for this setting: e-PES alone compared to control and e-PES+trehalose treated hTAU mice (n=5), 6 months.

The structures appear in SMILES notation.

For the compound `OC[C@H]1O[C@H](O[C@H]2O[C@H](CO)[C@@H](O)[C@H](O)[C@H]2O)[C@H](O)[C@@H](O)[C@@H]1O` [trehalose, (2R,2′R,3 S,3′S,4S,4′S,5R,5′R,6R,6′R)-6,6′-oxybis(2-(hydroxymethyl)tetrahydro-2H-pyran-3,4,5-triol)], the “onset of AD features” value in series [1] is “inhibited the onset of AD features”. Further, the “nestlet score at 4 months of age” value in the series on hTAU mice [2] (between control and indicated treatment groups, 4 month old hTAU mice) is “no significant changes”. Besides, the “nestlet score at 6 months of age” value in the series on hTAU mice [2] (setting [6]) is “significantly lower nestlet scores”. In addition, the “untorn nestlet weight at 6 months of age” value with hTAU mice [2] (setting [6]) is listed as “significantly greater untorn nestlet weights”. In addition, in the series on hTAU mice [2] (limited (4 weeks) treatment with trehalose, 2 g/kg/week), the cognitive decline entry was “improved cognitive decline”. The “falling off of the ledge / mobility” value was “immobile, not falling off” with hTAU mice [3] and “did not fall off of the ledge frequently” in the series with hTAU mice [3] (listed as Trehalose). The motor activity result in the series on hTAU mice [3] (trehalose 2 g/kg/week for 4 weeks after e-PES injection) was “could not restore motor activity completely”. Besides, the sensorimotor coordination deficits result in the series with hTAU mice [3] (trehalose 2 g/kg/week for 4 weeks after e-PES injection at 10-12 weeks of age) was “partially prevented”. The “time spent on the ledge” value with hTAU mice [3] (trehalose treated mice (n=5) compared to only e-PES treated mice) was “significantly more time on the ledge”. Besides, in series [4], the safety status entry is recorded as “generally regarded as safe”. Further, the “AD serum-caused protein aggregation” value in the series with SHSY neuronal cells and in the series on human trophoblasts was “could be inhibited” each time. In the series on hTAU mice [5], the hTAU burden entry is “reduced hTAU burdern”.
